Experimental data: patent US4940723A, “Use of bis-(5-amidino-2-benzimidazolyl) methane (BABIM) to treat arthritis” (University of North Carolina, Chapel Hill, priority 1988, dated 1990)
“And” between values parts separate entries of the source, which are not always exact repeats. Equal entries are not always repeated.

Tests used:
[1] = system: PG-APS-induced arthritis; assay: Clinical scoring of PG-APS-induced arthritis; assay type: in vivo, Lewis rats
Description: (§1) Inbred female Lewis rats were purchased from Charles River Laboratories, Inc. Their mean body weight at the start of the study was 145 g. Arthritis was induced by a single intraperitoneal injection of the 10S fraction of purified cell wall material in PBS. The volume was 0.5 ml, and the dose of PG-APS was equivalent to 15 μg of rhamnose content per gram of body weight. For the administration of BABIM into the tail vein the animals were lightly anesthetized with ether. The inhibitor was contained in 0.1 ml of saline. Control animals were injected in the same way, but received saline only. All rats had free access to food and water. Nineteen days after the initiation of arthritis, they were killed with an overdose of ether.
Severity of the arthritis was judged daily for the first 11 days after PG-APS injection and every one to three days. Involvement of each extremity was quantified on a scale from 0-4, yielding a maximum combined score of 16. Grading was restricted to the wrist and ankle joints and all joints distal from there. The individual score was based on the number of joints involved, the degree of cutaneous erythema, the extent of the swelling of the skin and periarticular soft tissue, and the enlargement and deformities of the joints.
The basic design of the experiments was as follows. Arthritis was induced in two groups of rats by the intraperitoneal application of PG-APS fragments. One group of animals received repeated injections of BABIM dissolved in saline, while the other group received saline only. The inhibitor dose of 10 mg/kg body weight was selected because it has been found effective in preliminary studies.
(§2) The dosing with inhibitor was begun two days before the induction of arthritis and was continued on a daily basis through day 6. From

[2] = system: PG-APS-induced arthritis; assay: Histological grading of the severity of PG-APS-induced arthritis (hind leg); assay type: in vivo, Lewis rats
Description: as §1
(§3) After the rats were killed, autopsies were performed. The liver, spleen, kidneys, adrenal glands, and the skinned distal hind legs were saved for further examination. The livers were weighed individually, and a sample of each was frozen and held for ELISA of PG-APS fragments. All other tissues were fixed in phosphate-buffered formalin solution. The bones were decalcified in formic acid-sodium citrate solution. Sections were stained with hematoxylin and eosin.
For this evaluation the hind legs were used because they were more severely involved than the front legs. Both hind legs were studied, but as the disease processes were always symmetrical only one leg was scored. Included in the histologic sections were the distal tibia with the ankle joint, the tarsal bones, and the metatarsals. These were ranked on a scale of 0-4, based on the extent of bone marrow hyperplasia, the density of neutrophilic infiltration in bone and soft tissues, the degree of destruction of trabecular and cortical bone, and the magnitude of the synovial and periosteal proliferative response.
as §2

[3] = system: PG-APS induced granulomatous hepatitis; assay: Liver weight and hepatic granulomata (PG-APS-induced granulomatous hepatitis); assay type: in vivo, Lewis rats
Description: as §1, §3, §2

[4] = system: PG-APS deposits in liver; assay: Quantification of PG-APS deposits in liver tissue (ELISA); assay type: in vivo, Lewis rats
Description: Measurements were based on a solid-phase enzyme-linked immunosorbent assay (ELISA) as known in the art. Briefly, microtiter plates were charged with group A cell wall antibodies and non-specific binding sites were blocked with human albumin. The coated walls were interacted with the tissue samples, and retention of PG-APS was determined from phosphate hydrolysis following sequential addition of affinity-purified biotinylated cell wall antibodies, avidin-alkaline phosphatase complexes and enzyme substrate. Standard curves were prepared with various amounts of the 10S PG-APS material and were used to correlate enzyme activity with levels of tissue deposits.
as §1, with “of ether. […]” for “of ether.”

[5] = system: granulomatous splenitis; assay: Splenic granulomatous involvement (PG-APS-induced granulomatous splenitis); assay type: in vivo, Lewis rats
Description: as §1, §3, §2
*Disease was scored on a scale of 0-4, based on the percentage of
granulomatous replacement of splenic parenchyma, where 0 = none, 1 = <25%

[6] = Toxicity observation (physical, behavioral, organ histology) in BABIM-treated rats; assay type: in vivo, Lewis rats
Description: as §3, §2

[7] = Dissolution in isotonic saline; assay type: physicochemical
Description: BABIM was synthesized according to established procedures. Purity of the compound was ascertained by infrared and nuclear magnetic resonance spectroscopy, thin-layer chromatography and elemental analysis. […] Solutions were prepared fresh on the day they were used.

[8] = system: trypsin; details: in words; cited from earlier work
[9] = system: plasmin; details: in words; cited from earlier work
[10] = system: urokinase; details: in words; cited from earlier work
[11] = system: Clr; details: in words; cited from earlier work
[12] = system: Cls; details: in words; cited from earlier work
[13] = system: hemolytic complement; details: in words; cited from earlier work
[14] = system: adjuvant arthritis; details: Sprague-Dawley rats; cited from earlier work

## N=C(N)c1ccc2nc(Cc3nc4ccc(C(=N)N)cc4[nH]3)[nH]c2c1 [BABIM, bis-(5-amidino-2-benzimidazolyl) methane]
[1]; 10 mg/kg body weight, preliminary studies
  Effect of 10 mg/kg dose in preliminary studies: effective
[1]; FIG. 1, initial response and recurrence, 10 mg/kg
  Suppression of clinical signs of arthritis: suppressed the clinical signs of arthritis dramatically
[1]; arthritis component compared with granulomata
  Relative suppression of arthritis versus hepatic and splenic granulomatous response: more effectively dealt with
[1]; individual BABIM-treated rats, final day (day 19), 10 mg/kg i.v. from day -2, scale 0-4 per extremity, maximum combined 16, 10 mg/kg
  Clinical score (individual animal): 0 and 1 and 2
[1]; initial peak
  Treated rats completely free of arthritis at the initial peak: 3 of the 7 treated rats
[1]; n=7, final day of experiment, P < 0.0001 versus vehicle (6.79 ± 2.86)
  Clinical score, Mean ± SD: 0.43 ± 0.79
[1]; recurrence
  Treated rats without symptoms during the recurrence: five
[1]; versus primary response
  Blockade of recurrence of the disease: blocked as completely as the primary response
[2]; FIG. 2B, day 19
  Bone marrow composition in calcaneus: Predominantly fatty marrow
[2]; FIG. 4B, day 19
  Inflammation of synovial recess of ankle joint: inflammation is absent
[2]; cell wall-injected and BABIM-treated Lewis rats
  Appearance of joints and bone marrow spaces: pristine appearance
[2]; day 19, FIGS. 2B, 3B, 4B
  BABIM-treated animals with complete absence of histological joint/bone abnormalities: five
[2]; individual BABIM-treated rats, day 19, scale 0-4, 10 mg/kg i.v., 10 mg/kg
  Histologic score (individual animal): 0 and 1.5 and 1
[2]; n=7, day 19, P < 0.0001 versus vehicle (2.81 ± 0.46)
  Histologic score, Mean ± SD: 0.36 ± 0.63
[2]; versus untreated rats
  Joint changes in the two BABIM-treated animals that developed joint disease: on a much smaller scale
[3]; 0.5 cm^2 liver sections, versus untreated
  Reduction in the number of hepatic granulomata: two-thirds
[3]; liver, 0.5 cm^2 sections, n=7, P < 0.005 versus vehicle (81.8 ± 34.5)
  Granulomata, No. per section, Mean ± SD: 25.6 ± 26.3
[3]; liver, both groups
  Percentage of centrally necrotic lesions: approximately 50%
[3]; liver, n=7, vehicle 56
  Granulomata, % with necrosis: 43%
[3]; n=7, day 19, P < 0.002 versus vehicle (18.5 ± 3.8)
  Weight of Liver, Mean ± SD: 11.0 ± 3.5 gm
[3]; versus untreated animals
  Size and makeup of hepatic granulomata: same size and makeup
[4]; liver, n=7, vehicle 0.226 ± 0.072
  PG-APS deposits, Mean ± SD: 0.237 ± 0.055 mg
[4]; versus untreated animals
  Total amounts of PG-APS fragments deposited in liver: nearly the same
[5]; all untreated rats affected
  Inhibitor-treated animals with granulomatous inflammation in the spleen: three
[5]; n=7, scale 0-4, not significantly different from vehicle 2.63 ± 1.3 (P > 0.2)
  Splenic disease score, Mean ± SD: 1.71 ± 1.5
[5]; rat, in vivo
  BABIM recipients rated the highest splenic grade (score of 4): three
  BABIM recipients with no splenic disease: four
[6]; 10 mg/kg, repeated i.v. injections
  Physical or behavioral abnormalities caused by the drug: None of the recipients of BABIM showed any physical or behavioral abnormalities
[6]; liver, kidney, adrenal glands, and spleen
  BABIM related toxicity, histological examination: absence of BABIM related toxicity
[7]
  Solubility in isotonic saline: easily dissolved
[8]
  Trypsin inhibition: potent inhibitor
[9]
  Plasmin inhibition: potent inhibitor
[10]
  Urokinase inhibition: potent inhibitor
[11]
  Inhibition in assays of Clr: only weakly inhibitory
[12]
  Inhibition in assays of Cls: only weakly inhibitory
[13]
  Inhibition in hemolytic complement tests: only weakly inhibitory

## N=C(N)c1ccc2cc(OC(=O)c3ccc(N=C(N)N)cc3)ccc2c1 [FUT-175]
[14]
  Influence on adjuvant arthritis: beneficial influence
